Publication PMC12095047, “Transport of phenoxyacetic acid herbicides by PIN-FORMED auxin transporters” (Nature Plants, 2025)
“And” between values parts separate entries of the source, which are not always exact repeats. Equal values may be shown once. Read-outs that look alike come from different tables or passages of the source.

Tests used:
[1] = biological target: T1, wild-type PIN8 proteoliposomes (Arabidopsis thaliana, UniProt Q9LFP6); test: SSM electrophysiology, peak width (FWHM) of current response at LPR10 and LPR50; format: biochemical; settings: for Rel. FWHM (% of LPR10): replicates
T1 construct: made in house
T1 sequence (Q9LFP6 1-367): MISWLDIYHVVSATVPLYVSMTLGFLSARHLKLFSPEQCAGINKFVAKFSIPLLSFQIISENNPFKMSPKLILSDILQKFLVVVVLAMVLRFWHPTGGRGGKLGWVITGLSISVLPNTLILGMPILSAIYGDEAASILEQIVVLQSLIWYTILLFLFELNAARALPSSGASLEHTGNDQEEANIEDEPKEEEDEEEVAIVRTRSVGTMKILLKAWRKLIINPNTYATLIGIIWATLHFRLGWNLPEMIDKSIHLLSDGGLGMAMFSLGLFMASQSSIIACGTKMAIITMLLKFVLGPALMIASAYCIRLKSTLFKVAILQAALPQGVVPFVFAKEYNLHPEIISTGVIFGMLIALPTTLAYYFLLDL
Procedure: (§1) SSM, using a SURFE2R N1 from Nanion Technologies, was conducted as described. In brief, soy polar lipid mix (38% phosphatidyl choline, 30% phosphatidyl ethanolamine, 18% phosphatidyl inositol, 7% phosphatidic acid and 7% other soy lipids) and 1-palmitoyl-2-oleoyl-sn-glycero-3-phosphocholin were purchased from Avanti. Liposomes were prepared in Ringer solution without Ca^2+ (115 mM NaCl, 2.5 mM KCl, 1 mM NaHCO3, 10 mM HEPES pH7.4, 1 mM MgCl2) and homogenized using a Lipsofast (Avestin) with a […]. Triton X-100 was added to the liposomes to a final concentration of 1% (v/v). Protein was added to liposomes to a calculated lipid-to-protein ratio (LPR) of 10 unless stated otherwise. The detergent was removed using 400 mg ml^−1 Bio Beads (BioRad) overnight at 4 °C in a rotary shaker. Proteoliposomes were frozen in liquid nitrogen and kept at −80 °C until use. Proteoliposomes were diluted 1:5 in Ringer solution without Ca^2+, sonicated five times and then applied to the sensors by centrifugation (30 min, 3,000 g, 4 °C). Non-activating buffer was Ringer solution without Ca^2+ as described unless specified otherwise, and activating buffer contained the substrate of interest. In most instances we used a single-solution exchange experiment. In this case proteoliposomes, immobilized on the supported membrane, are kept in non-activating buffer as specified. At the beginning of the experiment the non-activating buffer is replaced with fresh identical non-activating buffer, and after 1 s, activating buffer (same buffer containing substrate) is added. After another second, the buffer is replaced with non-activating buffer again. Current response is recorded throughout the entire 3 s. For competition or inhibition, the respective compound was present in non-activating and activating solutions. Each experiment was performed on at least two individual sensors. On each sensor each measurement consists of three technical replicates where the mean is calculated. KD values were determined as described previously. Briefly, the binding current induced by 100 µM NPA was recorded in the presence of different concentrations of the substrate under investigation ranging between 0 µM and 1,000 µM present in the activating solution and the non-activating solution (Extended Data Fig. 5b). […] The maximum peak current was then plotted as a function of the concentration of the substrate under investigation and plotted against the degree of inhibition and fitted with a one-site binding model using GraphPad Prism V10.4.1 The half maximal concentration corresponds to the KD of the substrate under investigation.

A. thaliana PIN8 = biological target: T2, A. thaliana PIN8 (Arabidopsis thaliana, UniProt Q9LFP6); test: SSM electrophysiology, peak current response on PIN8 proteoliposomes; format: biochemical; settings: 100 μM 2,4-D, 20 µM NPA
T2 construct: made in house
T2 sequence (Q9LFP6 1-367): T1 sequence (Q9LFP6 1-367)
Procedure: as §1

PIN8 = biological target: T3, PIN8 (Arabidopsis thaliana, UniProt Q9LFP6); test: SSM electrophysiology, KD by inhibition of the NPA binding current
T3 construct: made in house
T3 sequence (Q9LFP6 1-367): T1 sequence (Q9LFP6 1-367)
Procedure: as §1

PIN8 N223A = biological target: T4, PIN8 N223A (Arabidopsis thaliana, UniProt Q9LFP6, N223A); format: biochemical; settings: PIN8 N223A, Michaelis–Menten fit
T4 construct: made in house
T4 sequence (Q9LFP6 whole entry N223A): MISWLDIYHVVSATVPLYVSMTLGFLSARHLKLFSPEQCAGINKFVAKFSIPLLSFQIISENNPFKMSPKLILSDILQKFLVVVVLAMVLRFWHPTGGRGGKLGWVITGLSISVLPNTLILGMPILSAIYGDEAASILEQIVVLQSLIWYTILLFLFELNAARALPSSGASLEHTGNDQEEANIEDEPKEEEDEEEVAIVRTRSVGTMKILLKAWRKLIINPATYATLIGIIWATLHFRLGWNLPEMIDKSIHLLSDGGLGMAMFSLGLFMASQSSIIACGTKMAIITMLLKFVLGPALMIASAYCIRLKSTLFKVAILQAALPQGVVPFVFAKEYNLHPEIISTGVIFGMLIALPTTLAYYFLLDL
Procedure: as §1
The protocol for expression and purification of AtPIN8 protein (Uniprot: Q9LFP6) in lauryl maltose neopentyl glycol was described previously. All point mutants were generated using Q5 Site-Directed mutagenesis kit (New England Biolabs). The C-flat Holey Carbon grids (CF-1.2/1.3, Cu-300 mesh) were glow-discharged for 45 s at 15 mA in a GloQube Plus (Quorum). […] After 1 h of incubation on ice, the sample was centrifuged at 16,000 g for 15 min before blotting to remove precipitation. A drop of 4 µl of each sample was applied to the glow-discharged grids, blotted with a Vitrobot Mark IV (ThermoFisher Scientific) using the following settings (temperature 4 °C, 100% humidity, blot time of 4 s, blot force −1) and vitrified in liquid ethane.

[2] = 20 µM substrate, 100 µM NPA, individual sensors, read-out: Rel. Inhibition of NPA peak currents
[3] = 50 µM substrate, 100 µM NPA, individual sensors, read-out: Rel. Inhibition of NPA peak currents
[4] = 100 µM substrate, 100 µM NPA, individual sensors, read-out: Rel. Inhibition of NPA peak currents
[5] = 500 µM substrate, 100 µM NPA, individual sensors, read-out: Rel. Inhibition of NPA peak currents
[6] = 1000 µM substrate, 100 µM NPA, individual sensors, read-out: Rel. Inhibition of NPA peak currents
[7] = sheet F2A (Fig. 2a, KD of substrate binding), individual sensors, read-out: Peak current
[8] = 250 µM substrate, 100 µM NPA, individual sensors, read-out: Rel. Inhibition of NPA peak currents
[9] = Peak current, sheet F2A (Fig. 2a, KD of substrate binding), individual sensors
[10] = read-out: Rel. Inhibition of NPA peak currents, 50 µM substrate, 100 µM NPA, individual sensors
[11] = read-out: Rel. Inhibition of NPA peak currents, 100 µM substrate, 100 µM NPA, individual sensors
[12] = read-out: Rel. Inhibition of NPA peak currents, 250 µM substrate, 100 µM NPA, individual sensors
[13] = read-out: Rel. Inhibition of NPA peak currents, 500 µM substrate, 100 µM NPA, individual sensors
[14] = read-out: Rel. Inhibition of NPA peak currents, 1000 µM substrate, 100 µM NPA, individual sensors

| Structure (SMILES) | Rel. FWHM (% of LPR10) ([1]; LPR10) | Rel. FWHM (% of LPR10) ([1]; LPR50) | binding affinity to PIN8 in words (PIN8) | inhibition at 20 µM (PIN8; [2]) [%] | inhibition at 50 µM (PIN8; [3]) [%] | inhibition at 100 µM (PIN8; [4]) [%] | inhibition at 500 µM (PIN8; [5]) [%] | inhibition at 1000 µM (PIN8; [6]) [%] | Kd (PIN8; [7]) | inhibition at 250 µM (PIN8; [8]) [%] | Kd (PIN8; [9]) | inhibition at 250 µM (PIN8; [12]) [%] | inhibition at 500 µM (PIN8; [13]) [%] | inhibition at 1000 µM (PIN8; [14]) [%] | other results |
| --- | --- | --- | --- | --- | --- | --- | --- | --- | --- | --- | --- | --- | --- | --- | --- |
| O=C(O)c1ccccc1C(=O)Nc1cccc2ccccc12 [NPA, 1-N-naphthylphthalamic acid] | 0.9324 % of LPR10 and 1.054 % of LPR10 and 1.014 % of LPR10 | 0.6892 % of LPR10 and 0.7297 % of LPR10 and 0.7703 % of LPR10 | – | – | – | – | – | – | – | – | – | – | – | – | peak width of SSM-based current response as a function of lipid-to-protein ratio (LPR) ([1]; LPR10 versus LPR50): does not change with LPR; effect on the PIN8 current response to 2,4-D (A. thaliana PIN8): inhibited |
| O=C(O)COc1ccccc1Cl [2-CPA, 2-chlorophenoxyacetic acid] | 0.9412 % of LPR10 and 1.059 % of LPR10 and 1 % of LPR10 | 1.824 % of LPR10 (2×) and 1.235 % of LPR10 and 1.647 % of LPR10 | high affinity, comparable to that of IAA and 2,4-D | 19.9 | 33.3 | 57 | 94.3 | 99.8 | 106 µM and 112 µM and 101 µM | – | – | – | – | – | Imax (PIN8 N223A): 3 ± 0.1 nA and 2.6 ± 0.1 nA; EC50 (PIN8 N223A; No transport = model could not be fit, read-out: EC50 of peak current response): 263 µM |
| O=C(O)CCc1ccc(Cl)cc1Cl [2,4-DPP, 3-(2,4-dichlorophenyl)-propionic acid] | – | – | higher affinity than 2,4-D | 37.2 | 51.9 | 63.6 | 77.9 | – | 18.1 µM and 22.4 µM and 23.3 µM | 77.8 | – | – | – | – | inhibition at 5 µM (PIN8; 5 µM substrate, 100 µM NPA, individual sensors, read-out: Rel. Inhibition of NPA peak currents): 15.1% |
| Cc1cc(Cl)ccc1OCC(=O)O [MCPA, 2-methyl-4-chlorophenoxyacetic acid] | – | – | intermediate affinity | – | – | – | – | – | – | – | 149 µM and 159 µM and 103 µM | 65.4 | 78.3 | 88.6 | inhibition at 50 µM (PIN8; [10]): 25.1%; inhibition at 100 µM (PIN8; [11]): 41.7% |
| Cc1ccccc1OCC(=O)O [2-MPA, 2-methylphenoxyacetic acid] | – | – | – | – | 13 | 27.5 | 74.7 | 82.9 | 284 µM and 209 µM and 256 µM | 53.9 | – | – | – | – | – |
| Cc1ccc(OCC(=O)O)c(C)c1 [2,4-DMPA, 2-(2,4-dimethylphenoxy)acetic acid] | – | – | – | 9.25 | 21.8 | 37 | 78.8 | 92.8 | 205 µM and 139 µM and 178 µM | 61.3 | – | – | – | – | Kd (PIN8; inhibition of peak current elicited by 100 µM NPA, read-out: KD of substrate binding by PIN8): 174 ± 33 µM |
| Cc1ccc(OCC(=O)O)cc1 [4-MPA, 4-methylphenoxyacetic acid] | – | – | – | – | – | 12.1 | 40.8 | 58.3 | 710 µM and 614 µM and 521 µM | 25.7 | – | – | – | – | inhibition at 2000 µM (PIN8; 2000 µM substrate, 100 µM NPA, individual sensors, read-out: Rel. Inhibition of NPA peak currents): 72.8% |
| O=C(O)COc1ccc(Cl)cc1Cl [2,4D] | 1.043 % of LPR10 (2×) and 0.913 % of LPR10 | 1.565 % of LPR10 and 1.304 % of LPR10 and 1.239 % of LPR10 and 1.63 % of LPR10 | – | – | – | – | – | – | – | – | – | – | – | – | – |
| O=C(O)COc1ccccc1 [PA, phenoxyacetic acid] | – | – | – | – | – | – | – | – | 485 µM | – | 605 µM and 377 µM | 30.3 | 47.3 | 60.5 | – |
| O=C(O)COc1cc(Cl)c(Cl)cc1Cl [2,4,5-T, 2,4,5-trichlorophenoxyacetic acid] | – | – | highest affinity | – | – | – | – | – | 8.98 µM | – | 9.28 µM | 91 | 95.3 | 98.4 | inhibition at 1 µM (PIN8; read-out: Rel. Inhibition of NPA peak currents, 1 µM substrate, 100 µM NPA, individual sensors): 11.8%; inhibition at 5 µM (PIN8; read-out: Rel. Inhibition of NPA peak currents, 5 µM substrate, 100 µM NPA, individual sensors): 35.9%; inhibition at 20 µM (PIN8; read-out: Rel. Inhibition of NPA peak currents, 20 µM substrate, 100 µM NPA, individual sensors): 65.7%; inhibition at 50 µM (PIN8; [10]): 78.2%; inhibition at 100 µM (PIN8; [11]): 87.3% |
